Measurements from PubChem BioAssay AID248 (DTP/NCI, 2004).
Where “and” joins values, the source holds several entries; their conditions need not be identical. Equal entries are not always repeated. Inconclusive results and toxic doses are left out. No stated cut-off is given here; in the data, active means T/C of 150% or more; inactive means T/C below 125%.

System: L1210 leukemia ip in BDF1 mice, survival T/C
Experiment: NCI In Vivo Anticancer Drug Screen. Data for tumor model L1210 Leukemia (intraperitoneal) in B6D2F1 (BDF1) mice
Settings: endpoint: mean survival time, higher = longer survival
Procedure, shortened: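 Each compound was tested against a transplantable tumor grown in mice. The endpoint was survival, with treated animals benchmarked against vehicle controls as a simple ratio.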

[1] = dose: 100.0 mg/kg/injection, schedule: Q01DX009 (ip), vehicle: saline
[2] = dose: 100.0 mg/kg/injection, schedule: Q04DX003 (ip), vehicle: saline
[3] = dose: 200.0 mg/kg/injection, schedule: Q01DX009 (ip), vehicle: saline
[4] = dose: 200.0 mg/kg/injection, schedule: Q04DX003 (ip), vehicle: saline
[5] = dose: 400.0 mg/kg/injection, schedule: Q01DX009 (ip), vehicle: saline
[6] = dose: 400.0 mg/kg/injection, schedule: Q04DX003 (ip), vehicle: saline
[7] = dose: 100.0 mg/kg/injection, schedule: Q01DX001 (ip), vehicle: saline
[8] = dose: 200.0 mg/kg/injection, schedule: Q01DX001 (ip), vehicle: saline
[9] = dose: 400.0 mg/kg/injection, schedule: Q01DX001 (ip), vehicle: saline
[10] = dose: 100.0 mg/kg/injection, schedule: Q01DX009 (ip), vehicle: saline with Tween-80
[11] = dose: 200.0 mg/kg/injection, schedule: Q01DX009 (ip), vehicle: saline with Tween-80
[12] = dose: 50.0 mg/kg/injection, schedule: Q01DX009 (ip), vehicle: Klucel (hydroxypropylcellulose) (HPC)
[13] = dose: 100.0 mg/kg/injection, schedule: Q04DX002 (ip), vehicle: Klucel (hydroxypropylcellulose) (HPC)
[14] = dose: 200.0 mg/kg/injection, schedule: Q04DX002 (ip), vehicle: Klucel (hydroxypropylcellulose) (HPC)
[15] = dose: 400.0 mg/kg/injection, schedule: Q04DX002 (ip), vehicle: Klucel (hydroxypropylcellulose) (HPC)
[16] = dose: 200.0 mg/kg/injection, schedule: Q01DX009 (ip), vehicle: Klucel (hydroxypropylcellulose) (HPC)
[17] = dose: 100.0 mg/kg/injection, schedule: Q04DX002 (ip), vehicle: saline with Tween-80
[18] = dose: 200.0 mg/kg/injection, schedule: Q04DX002 (ip), vehicle: saline with Tween-80
[19] = dose: 400.0 mg/kg/injection, schedule: Q04DX002 (ip), vehicle: saline with Tween-80
[20] = dose: 100.0 mg/kg/injection, schedule: Q04DX003 (ip), vehicle: Klucel (hydroxypropylcellulose) (HPC)
[21] = dose: 200.0 mg/kg/injection, schedule: Q04DX003 (ip), vehicle: Klucel (hydroxypropylcellulose) (HPC)
[22] = dose: 400.0 mg/kg/injection, schedule: Q04DX003 (ip), vehicle: Klucel (hydroxypropylcellulose) (HPC)
[23] = dose: 100.0 mg/kg/injection, schedule: Q01DX009 (ip), vehicle: Klucel (hydroxypropylcellulose) (HPC)
[24] = dose: 400.0 mg/kg/injection, schedule: Q01DX009 (ip), vehicle: Klucel (hydroxypropylcellulose) (HPC)
[25] = dose: 100.0 mg/kg/injection, schedule: Q04DX003 (ip), vehicle: saline with Tween-80
[26] = dose: 200.0 mg/kg/injection, schedule: Q04DX003 (ip), vehicle: saline with Tween-80

Measured: T/C

O=C1NC(c2ccccc2)(c2ccccc2)C(=O)N1CC1CO1 (stereo not drawn)
inactive: [1] 100 % of control | [2] 103 % of control | [3] 91 % of control | [4] 102 % of control | [5] 93 % of control | [6] 97 % of control

CC1CNC(=O)CC(C)O1 (stereo not drawn)
inactive: [2] 108 % of control | [4] 110 % of control | [6] 104 % of control

Clc1ccc(C[P+](c2ccccc2)(c2ccccc2)c2ccccc2)cc1Cl
inactive: dose: 0.62 mg/kg/injection, schedule: Q01DX009 (ip), vehicle: acetone 98 % of control | dose: 1.25 mg/kg/injection, schedule: Q01DX009 (ip), vehicle: acetone 101 % of control | dose: 2.5 mg/kg/injection, schedule: Q01DX009 (ip), vehicle: acetone 101 % of control | dose: 2.5 mg/kg/injection, schedule: Q04DX003 (ip), vehicle: acetone 94 % of control | dose: 3.6 mg/kg/injection, schedule: Q01DX009 (ip), vehicle: saline with Tween-80 97 % of control | dose: 5.0 mg/kg/injection, schedule: Q01DX001 (ip), vehicle: acetone 90 % of control | dose: 5.6 mg/kg/injection, schedule: Q01DX009 (ip), vehicle: saline with Tween-80 106 % of control | dose: 8.4 mg/kg/injection, schedule: Q01DX009 (ip), vehicle: saline with Tween-80 102 % of control | dose: 10.0 mg/kg/injection, schedule: Q01DX001 (ip), vehicle: acetone 97 % of control

CC(C)(C#N)NC(N)=O
inactive: [7] 101 % of control | [1] 103 % of control | [2] 107 % of control | [8] 102 % of control | [3] 102 % of control | [4] 104 % of control | [9] 98 % of control | [5] 97 % of control | [6] 102 % of control

CCCC(=O)C(CCN(C)C)c1ccccn1 (stereo not drawn)
inactive: dose: 44.0 mg/kg/injection, schedule: Q01DX Z (ip), vehicle: methylcellulose (MC) 94 % of control | dose: 66.0 mg/kg/injection, schedule: Q01DX Z (ip), vehicle: methylcellulose (MC) 107 % of control

Oc1ccc2ccccc2c1Cc1cccc2ccccc12
inactive: [10] 90 % of control | [11] 95 % of control

CCCOc1ccc(C2=NCC(C)S2)c(C)c1 (stereo not drawn)
inactive: dose: 12.5 mg/kg/injection, schedule: Q01DX009 (ip), vehicle: Klucel (hydroxypropylcellulose) (HPC) 94 % of control | dose: 25.0 mg/kg/injection, schedule: Q01DX009 (ip), vehicle: Klucel (hydroxypropylcellulose) (HPC) 91 % of control | [12] 98 % of control and 90 % of control | dose: 100.0 mg/kg/injection, schedule: Q01DX005 (ip), vehicle: Klucel (hydroxypropylcellulose) (HPC) 101 % of control | dose: 200.0 mg/kg/injection, schedule: Q01DX005 (ip), vehicle: Klucel (hydroxypropylcellulose) (HPC) 89 % of control

C=CCc1cc(OC)c(OC)c(OC)c1
inactive: [10] 104 % of control | [11] 101 % of control | dose: 400.0 mg/kg/injection, schedule: Q01DX009 (ip), vehicle: saline with Tween-80 101 % of control

O=C(N/N=C/NN/C=N/NC(=O)c1ccncc1)c1ccncc1
inactive: dose: 75.0 mg/kg/injection, schedule: Q01DX001 (ip), vehicle: saline 101 % of control | dose: 150.0 mg/kg/injection, schedule: Q01DX001 (ip), vehicle: saline 100 % of control

CCCCCCCCCCNC(=O)C[n+]1cccc(C(N)=O)c1
inactive: dose: 12.5 mg/kg/injection, schedule: Q04DX003 (ip), vehicle: saline 86 % of control | dose: 25.0 mg/kg/injection, schedule: Q04DX003 (ip), vehicle: saline 89 % of control | dose: 50.0 mg/kg/injection, schedule: Q04DX003 (ip), vehicle: saline 102 % of control

O=C(O)COc1cccc(Cl)c1F
inactive: [13] 100 % of control | [14] 107 % of control | [15] 118 % of control

c1ccc(N2N=NC3C4CC(C5COCC54)C32)cc1 (stereo not drawn)
inactive: dose: 100.0 mg/kg/injection, schedule: Q01DX001 (ip), vehicle: Klucel (hydroxypropylcellulose) (HPC) 97 % of control | dose: 200.0 mg/kg/injection, schedule: Q01DX001 (ip), vehicle: Klucel (hydroxypropylcellulose) (HPC) 104 % of control | [16] 121 % of control | dose: 400.0 mg/kg/injection, schedule: Q01DX001 (ip), vehicle: Klucel (hydroxypropylcellulose) (HPC) 109 % of control

CCCCCCCCCCCC(=O)NC(=S)Nc1cccc(Cl)c1
inactive: dose: 100.0 mg/kg/injection, schedule: Q01DX001 (ip), vehicle: saline with Tween-80 93 % of control | [10] 107 % of control and 89 % of control | [17] 122 % of control and 91 % of control | dose: 200.0 mg/kg/injection, schedule: Q01DX001 (ip), vehicle: saline with Tween-80 93 % of control | [11] 96 % of control and 86 % of control | [18] 97 % of control and 119 % of control | dose: 400.0 mg/kg/injection, schedule: Q01DX001 (ip), vehicle: saline with Tween-80 90 % of control | [19] 105 % of control and 92 % of control

O=NN(CCCl)C(=O)Nc1ccc(S(=O)(=O)F)cc1
inactive: dose: 500.0 mg/kg/injection, schedule: Q01DX001 (ip), vehicle: carboxymethylcellulose (CMC) 110 % of control

COc1cc(/C=C(\C(=O)O)c2cccc3ccccc23)cc(OC)c1OC
inactive: [20] 97 % of control | [21] 107 % of control | [22] 102 % of control

CNC(=O)OCc1c(COC(=O)NC)c(-c2ccc(OC)cc2)n2c1CCC2
inactive: [12] 109 % of control | [23] 117 % of control | [16] 98 % of control

O=C(O)COc1ccc(OS(=O)(=O)c2ccccc2)cc1
inactive: [13] 103 % of control | [14] 111 % of control | [15] 103 % of control

C=CCCOC(C)=O
inactive: dose: 75.0 mg/kg/injection, schedule: Q04DX003 (ip), vehicle: saline 96 % of control | [23] 107 % of control | dose: 150.0 mg/kg/injection, schedule: Q04DX003 (ip), vehicle: saline 100 % of control | [16] 97 % of control | dose: 300.0 mg/kg/injection, schedule: Q04DX003 (ip), vehicle: saline 100 % of control | [24] 100 % of control

OC1CCC(O)C2CCCCC12 (stereo not drawn)
inactive: [7] 101 % of control | [20] 112 % of control | [8] 95 % of control | [21] 91 % of control | [9] 95 % of control | [22] 104 % of control

COC(=O)c1ccccc1NC(=O)CCl
inactive: [25] 99 % of control | [26] 91 % of control

CC1(C)N=C(N)N=C(N)N1NC(=O)c1ccc(Cl)cc1
inactive: [25] 100 % of control | [26] 103 % of control

C1=Nc2cc3c(cc2Cn2cccc21)OCO3
inactive: dose: 25.0 mg/kg/injection, schedule: Q04DX002 (ip), vehicle: Klucel (hydroxypropylcellulose) (HPC) 86 % of control | dose: 50.0 mg/kg/injection, schedule: Q04DX002 (ip), vehicle: Klucel (hydroxypropylcellulose) (HPC) 94 % of control | [13] 94 % of control

CC1OC(C(Cl)(Cl)Cl)NC1=O (stereo not drawn)
inactive: dose: 100.0 mg/kg/injection, schedule: Q04DX002 (ip), vehicle: saline 89 % of control | dose: 200.0 mg/kg/injection, schedule: Q04DX002 (ip), vehicle: saline 99 % of control | dose: 400.0 mg/kg/injection, schedule: Q04DX002 (ip), vehicle: saline 89 % of control

O=C(/C=C/c1ccccc1Cl)c1ccccc1
inactive: [12] 99 % of control | [23] 92 % of control | [16] 96 % of control

S=P(c1ccccc1)(c1ccccc1)C(P(c1ccccc1)c1ccccc1)P(c1ccccc1)c1ccccc1
inactive: [17] 97 % of control | [18] 100 % of control | [19] 97 % of control

C=CCOCC(O)CN(C)c1ccccc1 (stereo not drawn)
inactive: [23] 101 % of control | [20] 96 % of control | [16] 112 % of control | [21] 95 % of control | [24] 91 % of control | [22] 93 % of control
